Our source for the IC50 values is patent US11912719B2, “Substituted isoquinolines as rock kinase inhibitors” (Cervello Therapeutics LLC, priority 2018, dated 2024).

SMILES strings stand for the structures.

Holding throughout (format): biochemical
In assay [1] the target is T1, human ROCK1 catalytic domain (Homo sapiens, UniProt Q13464).
T1 construct: GST; purchased Carna BioSciences 01-109
As to the kind of experiment: fluorescence coupling (TR-FRET) enzymatic assay, ROCK1. Conditions: 4 nM enzyme, 4 μM ATP, 50 nM Ulight-CREBTide, one hour room temperature; read-out: ROCK1 IC50.

For assay [2], the target named is T2, human ROCK2 enzyme kinase domain (Homo sapiens, UniProt O75116).
T2 construct: GST; purchased Carna BioSciences 01-110
As to the kind of experiment: fluorescence coupling (TR-FRET) enzymatic assay, ROCK2. Particulars: 4 nM enzyme, 50 nM Ulight-CREBTide, one hour room temperature. (In general: In TR-FRET formats the signal depends on donor and acceptor labels being close together.)

The target in another assay is T3, PKACα (PRKACA) (Homo sapiens, UniProt P17612).
T3 construct: GST; purchased Carna BioSciences 01-127
As to the kind of experiment: fluorescence coupling (TR-FRET) enzymatic assay, PKACA off-target control. Particulars: 10 pM enzyme, 1 μM ATP, 50 nM Ulight-CREBTide, one hour room temperature.

Assay [3] has as its target T4, human AKT1 catalytic domain (Homo sapiens, UniProt P31749).
T4 construct: GST; purchased Carna BioSciences 01-101
Nature of the assay: fluorescence coupling (TR-FRET) enzymatic assay, AKT1 off-target control. Particulars: 0.5 nM enzyme, 4 μM ATP, 50 nM Ulight-CREBTide, one hour room temperature.

Assay [4] addresses T5, cGMP-dependent protein kinase 1 (PKG or PRKG1) (Homo sapiens, UniProt Q13976).
T5 construct: GST; purchased Carna BioSciences 01-142
T5 sequence (Q13976 1-686 isoform Q13976-2): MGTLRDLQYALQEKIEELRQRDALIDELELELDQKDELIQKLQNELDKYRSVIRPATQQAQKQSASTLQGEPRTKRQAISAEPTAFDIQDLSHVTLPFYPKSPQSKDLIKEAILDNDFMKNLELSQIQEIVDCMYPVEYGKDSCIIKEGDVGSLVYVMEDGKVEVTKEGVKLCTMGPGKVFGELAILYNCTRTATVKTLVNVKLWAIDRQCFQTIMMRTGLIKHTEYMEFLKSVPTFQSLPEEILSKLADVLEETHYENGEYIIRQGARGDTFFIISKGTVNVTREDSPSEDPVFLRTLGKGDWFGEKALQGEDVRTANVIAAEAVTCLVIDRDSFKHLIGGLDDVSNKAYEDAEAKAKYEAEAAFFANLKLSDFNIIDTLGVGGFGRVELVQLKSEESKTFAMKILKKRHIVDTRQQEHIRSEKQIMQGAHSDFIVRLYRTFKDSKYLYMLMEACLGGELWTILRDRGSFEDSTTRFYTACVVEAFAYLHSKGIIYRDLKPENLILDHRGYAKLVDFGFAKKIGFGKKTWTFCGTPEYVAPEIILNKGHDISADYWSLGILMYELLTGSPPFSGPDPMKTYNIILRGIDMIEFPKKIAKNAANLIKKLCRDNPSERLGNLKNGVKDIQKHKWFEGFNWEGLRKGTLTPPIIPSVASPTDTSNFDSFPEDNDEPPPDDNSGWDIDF
As to the kind of experiment: fluorescence coupling (TR-FRET) enzymatic assay, PKG off-target control. Particulars: 8 nM enzyme, 30 μM ATP, 50 nM Ulight-CREBTide, one hour room temperature.

T1 sequence (Q13464 1-477): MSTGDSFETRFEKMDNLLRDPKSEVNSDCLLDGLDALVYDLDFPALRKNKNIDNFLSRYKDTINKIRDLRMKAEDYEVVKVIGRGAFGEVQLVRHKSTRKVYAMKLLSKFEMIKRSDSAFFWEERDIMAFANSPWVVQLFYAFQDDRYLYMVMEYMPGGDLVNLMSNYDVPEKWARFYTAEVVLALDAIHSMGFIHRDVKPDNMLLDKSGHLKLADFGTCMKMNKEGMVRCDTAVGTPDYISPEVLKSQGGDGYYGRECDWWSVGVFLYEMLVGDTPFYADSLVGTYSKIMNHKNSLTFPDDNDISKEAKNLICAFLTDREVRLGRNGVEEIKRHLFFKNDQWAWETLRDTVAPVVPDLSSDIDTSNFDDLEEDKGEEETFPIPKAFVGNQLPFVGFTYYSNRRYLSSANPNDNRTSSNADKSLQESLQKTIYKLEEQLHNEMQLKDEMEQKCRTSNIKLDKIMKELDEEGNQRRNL
T2 sequence (O75116 1-553): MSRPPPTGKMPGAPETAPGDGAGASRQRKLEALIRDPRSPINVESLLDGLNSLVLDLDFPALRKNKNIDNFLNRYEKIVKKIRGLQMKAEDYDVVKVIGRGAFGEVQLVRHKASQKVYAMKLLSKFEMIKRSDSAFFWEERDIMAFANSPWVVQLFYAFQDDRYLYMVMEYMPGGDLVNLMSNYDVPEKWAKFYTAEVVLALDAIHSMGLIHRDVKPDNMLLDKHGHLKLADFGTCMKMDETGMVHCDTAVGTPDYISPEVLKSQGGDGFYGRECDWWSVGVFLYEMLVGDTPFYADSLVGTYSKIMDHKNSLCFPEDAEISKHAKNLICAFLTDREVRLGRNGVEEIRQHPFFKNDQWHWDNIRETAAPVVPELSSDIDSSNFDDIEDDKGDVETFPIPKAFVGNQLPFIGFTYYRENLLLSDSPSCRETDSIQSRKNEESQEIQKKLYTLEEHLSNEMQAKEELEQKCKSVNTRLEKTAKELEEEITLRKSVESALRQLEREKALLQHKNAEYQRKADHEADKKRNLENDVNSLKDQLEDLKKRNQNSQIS
T4 sequence (P31749 104-480): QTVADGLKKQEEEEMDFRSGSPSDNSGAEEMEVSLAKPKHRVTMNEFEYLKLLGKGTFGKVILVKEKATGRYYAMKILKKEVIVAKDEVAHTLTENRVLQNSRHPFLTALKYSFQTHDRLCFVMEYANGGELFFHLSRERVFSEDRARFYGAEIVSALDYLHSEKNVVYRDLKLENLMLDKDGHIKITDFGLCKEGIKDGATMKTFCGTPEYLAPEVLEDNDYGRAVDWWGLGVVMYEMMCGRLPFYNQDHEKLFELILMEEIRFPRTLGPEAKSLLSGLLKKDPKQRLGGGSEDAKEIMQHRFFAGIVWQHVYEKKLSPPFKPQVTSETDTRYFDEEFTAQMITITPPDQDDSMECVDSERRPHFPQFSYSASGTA

What is called IC50 is the midpoint of a concentration-inhibition curve. As to `Cc1c[nH]c(=O)c2cccc(S(=O)(=O)N3CCc4ncc(C#N)cc43)c12` [Example 39, 1-((4-methyl-1-oxo-1,2-dihydroisoquinolin-5-yl)sulfonyl)-2,3-dihydro-1H-pyrrolo[3,2-b]pyridine-6-carbonitrile], the IC50 in assay [1] is 100 to 1000 nM; in assay [2] it was 100 to 1000 nM; at PKACα (PRKACA), over 10000 nM; in assay [3] it was over 10000 nM; in assay [4] it was over 10000 nM.
